Measured values as given in EP1724268A1, “COMPOUND HAVING TGF-BETA INHIBITORY ACTIVITY AND PHARMACEUTICAL COMPOSITION CONTAINING SAME” (KIRIN BEER KABUSHIKI KAISHA, priority 2004, dated 2005).
Where two headings read alike, the source gives them in different places.

System: TGFβ signal
Test: TGFβ signal inhibitory activity, (SBE)4-Luc reporter in A549 cells (Test Examples 1A and 1B)
Format: cell-based, human
Details: Homo sapiens, A549, read-out: TGFβ inhibition rate, %
In short: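 Stable A549 line carrying (SBE)4-Luc Smad3-binding reporter treated with compound plus TGFβ-1 (2 ng/ml) for 4 hr; luciferase read by chemiluminescence. Percent inhibition relative to TGFβ-only and untreated cells, tested at 3 µM and 10 µM, some also at 1 µM.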

[1] = test compound 3 µM, TGFβ-1 2 ng/ml, 4 hr, Table 1A
[2] = test compound 10 µM, TGFβ-1 2 ng/ml, 4 hr, Table 1A
[3] = 3 µM, compounds of Reference Examples (Test Example 1B)
[4] = 10 µM, compounds of Reference Examples (Test Example 1B)
[5] = test compound 3 µM, Reference Examples, Table 1B
[6] = test compound 10 µM, Reference Examples, Table 1B

| SMILES | inhibition at 3 µM [1] [%] | inhibition at 10 µM [2] [%] | inhibition at 3 µM [3] [%] | inhibition at 10 µM [4] [%] | also measured |
| --- | --- | --- | --- | --- | --- |
| CCN(C)CCOc1ccc2nccc(Oc3ccc(C)nc3-c3ncccn3)c2c1 [Compound 223, ethyl-methyl-{2-[4-(6-methyl-2-pyrimidin-2-yl-pyridin-3-yloxy)-quinolin-6-yloxy]-ethyl}-amine] | 52 | 90 | – | – | – |
| COc1ccc2ncnc(Oc3cc(C)c(C)nc3-c3ccc(C)cn3)c2c1 [Compound 39, 6-Methoxy-4-(5,6,5'-trimethyl-[2,2']bipyridin-3-yloxy)-quinazoline] | 88 | 99 | – | – | – |
| Cc1cc(Oc2ccnc3ccc(-c4ccccc4)cc23)c(-c2ccccn2)nc1C [Compound 5, 5,6-Dimethyl-3-(6-phenyl-quinolin-4-yloxy)-[2,2']bipyridine] | 79 | 100 | – | – | – |
| COc1cc2c(Oc3cc(C)c(C)cc3C(C)=O)ccnc2cc1OCCn1ccnc1 [Compound r317] | – | – | 100 | 100 | – |
| FC(F)(F)c1ccc2nccc(Oc3cc4cccnc4nc3-c3ccccc3)c2c1 [Compound 54, 2-Phenyl-3-(6-trifluoromethyl-quinolin-4-yloxy)-[1,8]naphthyridine] | 76 | 99 | – | – | – |
| COc1cc2nccc(Oc3c(C)cc4ncccc4c3Cl)c2cc1OC [r302] | – | – | 30 | 90 | – |
| C=C(C)C(=O)Oc1ccc(C(=O)c2ccccc2)c(Oc2ccnc3cc(OC)c(OC)cc23)c1 [Compound r67] | – | – | – | – | inhibition at 3 µM [5]: 4%; inhibition at 10 µM [6]: 93% |
| COc1cc2nccc(Oc3ccc(C)nc3I)c2cc1OC [r116] | – | – | – | – | inhibition at 3 µM [5]: 99%; inhibition at 10 µM [6]: 100% |
| Cc1ccc(-c2ccc3nccc(Oc4cc(C)c(C)nc4-c4ccccn4)c3c2)s1 [Compound 165, 5,6-Dimethyl-3-[6-(5-methyl-thiophen-2-yl)-quinolin-4-yloxy]-[2,2']bipyridine] | 90 | 100 | – | – | – |
| CCN(CC)CCCOc1cc2nccc(Oc3ccc(C)cc3C(=O)c3ccccc3)c2cc1OC [Compound r134] | – | – | – | – | inhibition at 3 µM [5]: 100%; inhibition at 10 µM [6]: 100% |
| COc1cc2nccc(Oc3cc(C)c(C)nc3-c3ccccn3)c2cc1OC(C)C [Compound 120, 3-(6-Isopropoxy-7-methoxy-quinolin-4-yloxy)-5,6-dimethyl-[2,2']bipyridine] | 94 | 100 | – | – | – |
| COc1cc2nccc(Oc3ccc(C)cc3C(=O)c3ccc(OCCN4CCCCC4)cc3)c2cc1OC [Compound r190] | – | – | 30 | 86 | – |
| COc1ccc(Oc2ncnc3cc(OC)c(OC)cc23)c(C(C)=O)c1 [r162] | – | – | – | – | inhibition at 3 µM [5]: 5%; inhibition at 10 µM [6]: 54% |
| COc1cc2nccc(Oc3ccc4c(ccn4C(C)=O)c3)c2cc1OC [Compound r21] | – | – | – | – | inhibition at 3 µM [5]: 16%; inhibition at 10 µM [6]: 71% |
| COc1cc2nccc(Oc3ccc(C)cc3C(=O)c3ccc(OCCN4CCOCC4)cc3)c2cc1OC [Compound r191] | – | – | 39 | 93 | – |
| COc1cc2c(Oc3ccc(C)cc3C(=O)c3ccccc3)ccnc2cc1OCC(O)CN1CCN(C)CC1 (stereo not drawn) [Compound r158] | – | – | – | – | inhibition at 3 µM [5]: 100%; inhibition at 10 µM [6]: 100% |
| Cc1ccc(-c2ccc3nccc(Oc4cc(C)c(C)nc4-c4ccccn4)c3c2)cc1 [Compound 8, 5,6-Dimethyl-3-(6-p-tolyl-quinolin-4-yloxy)-[2,2']bipyridine] | 60 | 100 | – | – | – |
| COc1cc2c(Oc3cc(C)c(C)nc3-c3ccc(C)cn3)ccnc2cc1OCC1CO1 (stereo not drawn) [Compound r457] | – | – | 97 | 100 | – |
| COc1cc2c(Oc3cc4ccccc4nc3C)ccnc2cc1OCCN1CCC(C(N)=O)CC1 [Compound r362] | – | – | 100 | 100 | – |
| COc1cc2c(Oc3cc(C)c(C)nc3-c3ccccn3)ccnc2cc1F [Compound 104, 3-(7-Fluoro-6-methoxy-quinolin-4-yloxy)-5,6-dimethyl-[2,2']bipyridine] | 99 | 100 | – | – | – |
| COc1cc2nccc(Oc3ccc4cc(Br)ccc4c3)c2cc1OC [r18] | – | – | – | – | inhibition at 3 µM [5]: 15%; inhibition at 10 µM [6]: 69% |
| COc1cc2nccc(Oc3ccc(C)nc3-c3cccc(O)c3)c2cc1OC [Compound r237] | – | – | 100 | 100 | – |
| COc1cc2c(Oc3cc(C)c(C)nc3-c3ccccn3)ccnc2cc1OCCO [Compound r339] | – | – | 100 | – | – |
| COc1cc2nccc(Oc3ccc(C)nc3-c3cccc(F)c3)c2cc1OC [Compound r240] | – | – | 100 | 100 | – |

| SMILES | inhibition at 3 µM [1] [%] | inhibition at 10 µM [2] [%] | inhibition at 3 µM [3] [%] | inhibition at 10 µM [4] [%] | also measured |
| --- | --- | --- | --- | --- | --- |
| COc1cc2c(Oc3cc4ccccc4nc3C)ccnc2cc1OCC(N)=O [Compound r370] | – | – | 85 | 99 | – |
| COc1cc2nccc(Oc3ccc(C)nc3C(OC(C)=O)c3cccc(C)n3)c2cc1OC (stereo not drawn) [Compound r219] | – | – | 20 | 67 | – |
| COc1cc2c(Oc3ccc(C)cc3C(=O)c3ccccc3)ccnc2cc1OCCCCCl [Compound r141] | – | – | – | – | inhibition at 3 µM [5]: 55%; inhibition at 10 µM [6]: 89% |
| COc1ccc2nccc(Oc3cc4cccnc4nc3-c3ccccc3)c2c1 [Compound 55, 3-(6-Methoxy-quinolin-4-yloxy)-2-phenyl-[1,8]naphthyridine] | 94 | 100 | – | – | – |
| COc1cc2c(Oc3cc4ccccc4nc3C(C)=O)ccnc2cc1OCCCO [Compound r456] | – | – | 99 | 100 | – |
| Cc1cc(Oc2ccnc3ccc(C(F)(F)F)cc23)c(-c2ccccn2)nc1C [Compound 3, 5,6-Dimethyl-3-(6-trifluoromethyl-quinolin-4-yloxy)-[2,2']bipyridine] | 99 | – | – | – | inhibition at 1 µM (test compound 1 µM, TGFβ-1 2 ng/ml, 4 hr, Table 1A): 79% |
| COC(=O)c1cc2ccccc2cc1Oc1ccnc2cc(OC)c(OC)cc12 [Compound r79, Methyl 3-[(6,7-Dimethoxy-4-quinolyl)oxy]naphthalene-2-carboxylate] | – | – | – | – | inhibition at 3 µM [5]: 97%; inhibition at 10 µM [6]: 100% |
| Cc1cc(Oc2ccnc3cc(-c4csc5ccccc45)ccc23)c(-c2ccccn2)nc1C [Compound 172, 3-(7-Benzo[b]thiophen-3-yl-quinolin-4-yloxy)-5,6-dimethyl-[2,2']bipyridine] | 49 | 90 | – | – | – |
| Cc1cc(Oc2ccnc3ccc(Br)cc23)c(-c2ccccn2)nc1C [Compound 2, 3-(6-Bromo-quinolin-4-yloxy)-5,6-dimethyl-[2,2']bipyridine] | 100 | 100 | – | – | – |
| Cc1ccc(Oc2ccnc3ccc(OCCCN4CCC(Cc5ccccc5)CC4)cc23)c(-c2ncccn2)n1 [Compound 220, 6-[3-(4-Benzyl-piperidin-1-yl)-propoxy]-4-(6-methyl-2-pyrimidin-2-yl-pyridin-3-yloxy)-quinoline] | 91 | 100 | – | – | – |
| COc1cc2c(Oc3ccc(C)cc3C(=O)c3ccccc3)ccnc2cc1OCCCN1CCC(N2CCCC2)CC1 [Compound r136] | – | – | – | – | inhibition at 3 µM [5]: 90%; inhibition at 10 µM [6]: 100% |
| COc1cc2nccc(Oc3ccccc3C(C)=O)c2cc1OC [Compound r29] | – | – | – | – | inhibition at 3 µM [5]: 0%; inhibition at 10 µM [6]: 67% |
| CCOC(=O)COc1cc2nccc(Oc3cc4ccccc4nc3C)c2cc1OC [Compound r372] | – | – | 14 | 93 | – |
| Cc1cc(Oc2ccnc3cc(-c4cccnc4)ccc23)c(-c2ccccn2)nc1C [Compound 18, 5,6-Dimethyl-3-(7-pyridin-3-yl-quinolin-4-yloxy)-[2,2']bipyridine] | 95 | 100 | – | – | – |
| COc1cc2c(Oc3cc(C)c(C)nc3-c3cccnc3)ccnc2cc1OCc1ccccc1 [Compound r344] | – | – | 92 | – | – |
| COc1cc2c(Oc3cc4cccnc4nc3-c3ccccc3)ccnc2cc1Cl [Compound 61, 3-(7-Chloro-6-methoxy-quinolin-4-yloxy)-2-phenyl-[1,8]naphthyrridine] | 98 | 100 | – | – | – |
| COc1cc2nccc(Oc3cc4ccccc4cc3C(C)=O)c2cc1OC [Compound r200, 1-[3-(6,7-Dimethoxy-quinolin-4-yloxy)-naphthalene-2-yl]-ethanone] | – | – | 94 | 100 | – |
| COc1cc2nccc(Oc3ccc(F)nc3-c3ccccn3)c2cc1OC [Compound 115, 3-(6,7-Dimethoxy-quinolin-4-yloxy)-6-fluoro-[2,2']bipyridine] | 100 | 100 | – | – | – |
| COc1cc2c(Oc3cc4ccccc4nc3C)ccnc2cc1OC[C@H](O)CO [Compound r386] | – | – | 99 | – | – |
| Cc1cc(Oc2ccnc3cc(-c4ccsc4)ccc23)c(-c2ccccn2)nc1C [Compound 171, 5,6-Dimethyl-3-(7-thioahen-3-yl-quinolin-4-yloxy)-[2,2']bipyridine] | 100 | 100 | – | – | – |
| COc1cc2nccc(Oc3cc4ccccc4nc3Br)c2cc1OC [Compound r281, 4-(2-Bromo-quinolin-3-yloxy)-6,7-dimethoxy-quinoline] | – | – | 88 | 100 | – |
| COc1cccc(-c2nc3ncccc3cc2Oc2ccnc3cc(OC)c(OC)cc23)c1 [Compound 81, 3-(6,7-Dimethoxy-quinolin-4-yloxy)-2-(3-methoxy-phenyl)-[1,8] naphthyridine] | 97 | 100 | – | – | – |
| COc1cc2nccc(Oc3cc(Cl)cnc3OC3CCCC3)c2cc1OC [r222] | – | – | 44 | 100 | – |
| CCOC(=O)/C(C)=C/c1cc(OC)ccc1Oc1ccnc2cc(OC)c(OC)cc12 [r8] | – | – | – | – | inhibition at 3 µM [5]: 10%; inhibition at 10 µM [6]: 59% |
